Data reported in patent publication US6605115B1, “Method and composition for inhibiting cardiovascular cell proliferation” (Board of Trustees of the Leland Stanford Junior University, priority 1999, dated 2003).

Assays:
[1] = system: rat vascular smooth muscle cells (VSMC); assay: Translocation of biotin-labeled peptides into cultured VSMC (HRP-streptavidin/DAB staining); format: cell-based; conditions: 10 μM, 30 minutes, 37° C.
Procedure: In the studies described below, transmembrane transport and cellular uptake of oligomers was assessed by incubating cells or tissue with biotin-oligomer conjugates, followed by treatment with horseradish peroxidase (HRP)-conjugated streptavidin and subsequent incubation with DAB (3,3′-diaminobenzidine), a substrate of the enzyme which produces a highly colored product.
Cultured VSMC (vascular smooth muscle cells) were treated, as described in Example 2, with biotinylated oligomers of arginine or lysine. After incubation, the cells were treated with HRP-streptavidin conjugate, then with DAB. Staining by the oxidation product was observed using light microscopy.
Rat VSMCs were grown on glass microscope slide chambers (Nunc Inc., Naperville, Ill.). Subconfluent cells were washed and placed in serum-free medium. After 2 hours, cells were treated with bR7, or bK7 (0.1 μM, 1.0 μM, 10 μM), at 37° C. for 30 minutes. To assess the role of endocytosis in cellular uptake of the peptides, experiments were performed at 4° C., and also in the presence of sodium azide (1.0%) for 30 minutes prior to exposure to the peptides. To assess the involvement of the basic amino acid transport system y+ in the translocation of peptides into the cell, experiments were performed in the presence of excess extracellular L-arginine (10 mM).
After 30 minutes of incubation with the peptides, cells were washed 3 times with phosphate-buffered saline (PBS), fixed for 5 minutes at −20° C. in ethanol/acetone, washed 3 times in PBS, incubated for 30 minutes with a peroxidase suppressor (ImmunoPure, Pierce, Rockford, Ill.) to block endogenous peroxidase activity and nonspecific binding, washed, and then incubated with 5 μg/ml of horseradish peroxidase (HRP) conjugated strepavidin (Pierce, Rockford, Ill.) for 30 minutes. Cells were washed 3 times with PBS, and a substrate of HRP, DAB (Sigma, St. Louis, […].), was added to the cells. The reaction was terminated by washing in distilled water after a 60-second incubation with DAB. Cell preparations were observed by conventional light microscopy (see FIG. 1). This experimental protocol was repeated 3 times.

[2] = system: human umbilical vein endothelial cells (ECV304); assay: In vitro translocation of biotin-labeled peptides into endothelial cells; format: cell-based
Procedure: Spontaneously transformed human umbilical vein endothelial cells (ECV304, ATCC) were cultured in medium M199 (Irvine Scientific) containing 10% fetal bovine serum (FBS), 100 IU/ml penicillin and 100 μg/ml of streptomycin (Gibco BRL). Confluent cells were washed and placed in serum-free medium. After 2 hours, the cells were incubated in presence of biotin labeled peptides, as bL-R7, or bD-R7, or bL-K7 (0.1, 1.0, and 10.0 μM). After 30 minutes of incubation, cells were washed 3 times with phosphate-buffered saline (PBS), fixed in ethanol/acetone; washed in PBS; incubated for 30 minutes with peroxidase suppressor (ImmunoPure, Pierce) to block endogenous peroxidase activity; and then incubated with 5 μg/ml of horse-radish peroxidase (HRP) conjugated strepavidin (Pierce) for 30 minutes. Substrate of HRP, diaminobenzidine (DAB, Sigma), was added to the cells. The reaction was terminated by washing in distilled water after a 60-second incubation. This experiment was repeated 3 times.

[3] = system: rabbit carotid artery segment; assay: Ex vivo translocation study, carotid artery segments; parameters: species or system New Zealand white rabbits; conditions: carotid artery, 10.0 μM, 30 minutes
Procedure: (§1) After incubation with biotin labeled oligomer, vascular segments were washed, then frozen in OCT compound (Miles Scientific). Frozen sections, 5 μm thick, were fixed with acetone for 10 minutes. Internalized biotin was detected using the staining procedure described in Example 2. Methyl green was used for nuclear counter staining.
(§2) To quantify the efficiency of nuclear translocation, the numbers of both DAB positive nuclei and total nuclei were counted in the intima and media separately at ×400 magnification with a video image analysis system (Automatrix). The frequency of nuclear translocation was expressed as the percent staining of nuclei, defined as the ratio of the number of DAB positive nuclei to that of all nuclei, in the intima and media. Each protocol was repeated 4 times.
Both carotid artery and jugular vein segments of male New Zealand white rabbits were used. To test the dose dependence of R7 translocation, vascular segments were incubated for 30 minutes with either bL-R7 or bD-R7 solution (0.1, 1.0, and 10.0 μM) in serum-free Dulbecco's minimal essential medium (DMEM) (Gibco BRL). To test the incubation time dependence, vascular segments were incubated with 10.0 μM of biotin labeled R7 solution for 10 seconds, 60 seconds, 5 minutes, 10 minutes, and 30 minutes. Furthermore, to determine the ability of R7 to penetrate through the vessel wall, vascular segments were ligated one end, R7 containing medium was instilled, and the other end ligated so as to expose only the luminal surface to R7. The luminal surface of the vascular segment was exposed to bL-R7 or bD-R7 (10.0 μM) for 30 minutes. To test the temperature dependence of translocation, vascular segments were incubated with 10.0 μM of biotin labeled R7 solutions at 37° C. or 4° C. To determine the disappearance time course of translocated R7, vascular segments were incubated with biotin labeled R7 solutions (10.0 μM) at 37° C. for 30 minutes, and then reincubated in DMEM with 10% FBS up to 5 days. Vascular segments were harvested at 1, 2 and 5 days after initial incubation.

jugular vein segments = assay: Ex vivo translocation study, jugular vein segments; parameters: species or system New Zealand white rabbits; conditions: 10 μM, 30 minutes
Procedure: as §1, §2
Both carotid artery and jugular vein segments of male New Zealand white rabbits were used. To test the dose dependence of R7 translocation, vascular segments were incubated for 30 minutes with either bL-R7 or bD-R7 solution (0.1, 1.0, and 10.0 μM) in serum-free Dulbecco's minimal essential medium (DMEM) (Gibco BRL). To test the incubation time dependence, vascular segments were incubated with 10.0 μM of biotin labeled R7 solution for 10 seconds, 60 seconds, 5 minutes, 10 minutes, and 30 minutes. […]

cytokine-stimulated VSMC [4] = assay: Effect of arginine oligomers on NO production in cytokine-stimulated VSMC (NO2, Griess); format: cell-based, rat
Procedure: Rat VSMCs were prepared from the media layer of thoracic aorta of Sprague-Dawley rats by the explant method. The cells were cultured in Dulbecco's modified Eagle's medium (DMEM, Gibco BRL, Gaithersburg, Md.) containing 10% fetal calf serum, 100 U/ml penicillin and 100 μg/ml streptomycin at 37° C. under a humidified atmosphere containing 5% CO2. After subconfluent growth, cells were cultured with MEM Select Amine Kit (Gibco BRL, Gaithersburg, Md.) to be treated by specific concentrations of extracellular free L-arginine. Experiments were performed using cultured cells at passage levels of 5-10.
Extracellular NO production was measured as its stable oxidative metabolite, nitrite (NO2). At the end of each incubation, samples of the medium (80 μl) were collected, and NO2 measurement was performed using the Griess reaction facilitated by a commercial calorimetric assay (Cayman Chemical, Ann Arbor, Mich.). Values of NO2 production were corrected with relative cell count assessed by a cell proliferation kit II (XTT) (Boeheringer Mannheim, Germany).
Subconfluent cells were pre-incubated with medium containing 100 μM arginine for 24 hours. The cells were then transiently pretreated with each arginine polymer for 30 minutes. After translocation, the cells were incubated with a mixture of IFN-γ (100 U/ml) and LPS (100 μg/ml) in medium containing 100 μM L-arginine for another 24 hours. In some experiments, L-NMMA (1 mM), a nitric oxide synthase inhibitor, was added to the medium.

iNOS protein = assay: Assay for iNOS protein expression (western blotting); format: cell-based, rat; conditions: 10 μM, 30 minutes exposure, cells stimulated by IFN-γ and LPS
Procedure: In order to clarify the effects of arginine polymer translocation on iNOS expression, iNOS protein concentrations of rat VSMC were analyzed by western blotting. Samples were analyzed from non-stimulated cells, cells stimulated with IFN-γ (100 U/ml) and LPS (100 μg/ml), or R7 (10 μM) pretreated cells which were stimulated with IFN-γ and LPS. Treated cells were washed twice with PBS, and total cell lysates were harvested in 150 μl of lysis buffer containing 150 mM NaCl, 50 mM Tris/Cl, pH 8.0, 1% NP40, and 0.1% SDS. Samples were centrifuged for 5 minutes at 14,000 g, 4° C., to remove insoluble material, and the supernatant was collected. Protein concentrations were measured with the Lowry method. Cell lysates containing 50 μg of protein were boiled for 5 minutes and separated on an 8.0% SDS-polyacrylamide minigel. Eluted proteins were electroblotted onto nitrocellulose membrane (HyBond, Amersham, England). The blots were incubated for 1 hour in 5% non-fat dry milk/0.05% Tween® in Tris buffered saline (TBS) to block non-specific binding of the antibody. Blots were incubated for 3 hours with primary monoclonal antibodies against iNOS protein diluted 1:2,500 in TBS/Tween®. The blots were then incubated with peroxidase labeled gout anti-mouse IgG in the same buffer for 1 hour. […]

vein grafts = assay: Vein graft model: vessel morphometry 28 days after surgery; format: in vivo, New Zealand white rabbits
Procedure: Male New Zealand white rabbits (3.0-3.5 kg) fed standard diets were anesthetized with a mixture of ketamine (40 mg/kg) and xylazine (5 mg/kg) intramuscularly. The left external jugular vein was exposed through a longitudinal neck incision. The jugular vein was excised, gently flushed and immersed in PBS (control) or PBS containing either L-R7 (10.0 μM) or D-r7 (10.0 μM) for 30 minutes.
The right common carotid artery was exposed and clamped at the both proximal and distal ends. The treated vein segment was washed with PBS and then anastomosed in a reverse end-to-side fashion into the carotid artery, using continuous 8-0 polypropylene sutures. The common carotid artery was ligated and dissected between the two anastomoses, and the wound was closed with 3-0 nylon suture.
Vein graft segments were harvested on the 28th surgical day. Graft segments were fixed in 10% buffered formalin with gentle intraluminal pressure to maintain the physiological graft configuration. The middle portion of the paraffin samples were sectioned (5 μm) and stained with hematoxylin/eosin for light microscopic examination (FIGS. 8A-C). Three sections of each graft, taken at 0.5 mm intervals, were analyzed by planimetry by a observer blinded to the treatment group. The cross-sectional areas of the lumen, intima and media was digitized with the use of the Image Analyst program (Automatrix). The ratio of intima to media (I/M) area was calculated.

vein graft segments = assay: Ex vivo NOx production from vein graft harvested 3 days after surgery; format: in vivo, New Zealand white rabbits; conditions: vein grafts harvested after 3 days, absence of calcium ionophore
Procedure: Vein grafts were harvested 3 days after surgery, as described in Example 7. Vein graft segments were incubated in 1 me of Hanks' buffered saline solution (HBSS, Irvine Scientific) containing Ca^2+ (1.0 mM) and L-arginine (100 μM, Sigma) at 37° C. for 2 hours. NOx (nitrate and nitrite) production was measured either in the absence (basal) or presence (stimulated) of calcium ionophore (A23187, 10.0 μM, Sigma). Samples of the medium (80 μL) were collected, and NOx measurement was performed using the Griess reaction facilitated by a commercial calorimetric assay (Cayman Chemical).

Rat aortic VSMC = assay: VSMC proliferation assay (XTT); format: cell-based; conditions: 10.0 μM, 30 minutes, then growth medium 0.5% FBS for 48 hours; vs vehicle
Procedure: Rat aortic VSMC were grown to 50% confluence in 96-well cell culture plates. VSMC were then washed and incubated with serum free DMEM for 48 hours to obtain quiescent nondividing cells. Thereafter, VSMC were treated with vehicle, L-R7 (10.0 μM), or D-R7 (10.0 μM) for 30 minutes. After the treatment, cells were washed, and further incubated with serum containing DMEM (0.5%, FBS). Cells were harvested after 48 hours of incubation. Cell count was performed with commercial cell proliferation assay kit using spectrophotometer (XTT, Boehringer Mannheim). As a negative control, cells treated with vehicle and incubated with DSF were used. As an index of cell proliferation, the OD ratio of each treatment group to negative control group was calculated as an index of cell proliferation.

cytokine-stimulated VSMC [5] = assay: Effect of arginine oligomers on NO production in cytokine-stimulated VSMC (NO2, Griess); format: cell-based, rat; conditions: exposure 5 minutes; observed for 24 hours; free L-arginine at 1 mM

Substance: biotin-labeled heptalysine [bK7, reference compound]
- internalized biotin signal (staining) [1]: no internalized biotin signal was observed
- internalized biotin signals ([2]; endothelial cells, 0.1, 1.0, and 10.0 μM, 30 minutes): No internalized biotin signals were detected
- biotin signal in vascular cells [3]: no stained cells were apparent
- biotin staining pattern (jugular vein segments): no stained cells were apparent

Substance: hepta-L-arginine [R7]
- translocation across cytoplasmic and nuclear membranes ([2]; VSMC and endothelial cells in culture): very efficient at translocating across both cytoplasmic and nuclear membranes
- elevation of NO production (cytokine-stimulated VSMC [4]; R7 10 μM pretreatment, free L-arginine up to 1 mM): significant elevation of NO production
- NO production (cytokine-stimulated VSMC [4]; pretreatment 30 minutes, then IFN-γ and LPS, 100 μM extracellular L-arginine): dose-dependent increases in NO production at doses as low as 10 μM
- degree of enhancement of NO production (cytokine-stimulated VSMC [4]; pretreatment 30 minutes, vs. vehicle treated cytokine-stimulated cells): 24±3.8%
- expression levels of iNOS (iNOS protein): no effect on the expression levels of iNOS
- myointima formation (vein grafts): substantially less myointima formation
- intima/media ratio (I/M) (vein grafts; 10.0 μM): 0.4±0.2
- intimal area (vein grafts; 10.0 μM, 30 minutes immersion): 0.5±0.2 mm^2
- reduction of intimal area (vein grafts; 10.0 μM, vs control): more than 70%
- Basal NOx production (vein graft segments): 80±14 nM/mg tissue/hr
- VSMC proliferation (Rat aortic VSMC): significantly inhibited
- NO biosynthesis after 5 minutes exposure (cytokine-stimulated VSMC [5]): sustained increase in NO biosynthesis
